Assays:
Format in all cases: cell-based, human
[1] = system: MCF-7 cell line; test: MTT cytotoxicity assay, MCF-7
[2] = system: MCF-7 cell line; test: Annexin V-PI flow cytometry apoptosis assay; settings: 72 h, untreated 4.5%
[3] = system: MCF-7 cell line; test: Cell cycle analysis by flow cytometry; settings: 72 h, untreated 15.93%

| Compound | improvement of activity compared to Erlotinib [1] [folds] | percentage of apoptotic cells ([2]; 5 µM) [%] | percentage of apoptotic cells ([2]; 10 µM) [%] | percentage of apoptotic cells ([2]; 20 µM) [%] | accumulation of the cells in S phase ([3]; 5 µM) [%] | accumulation of the cells in S phase ([3]; 10 µM) [%] | accumulation of the cells in S phase ([3]; 20 µM) [%] |
| --- | --- | --- | --- | --- | --- | --- | --- |
| NNc1nc2ccc(Br)cc2c(=O)n1-c1ccc(F)cc1 [7j, 6-bromo-3-(4-fluorophenyl)-2-hydrazineylquinazolin-4(3H)-one] | 6 | – | – | – | – | – | – |
| NNc1nc2ccc(Br)cc2c(=O)n1-c1ccc(Cl)cc1 [7k, 6-bromo-3-(4-chlorophenyl)-2-hydrazineylquinazolin-4(3H)-one] | 6 | 17.46 | 41.2 | 56 | 16.66 | 25.65 | 30.61 |
